This note sets out measurements from PMC7615676, “Short-course combination treatment for experimental chronic Chagas disease” (Science translational medicine, 2023).

Molecules are shown by their SMILES. ≈ marks a conversion by molar mass, not a printed value. Like-named read-outs stand apart in the source and are kept apart here. Where only a bound is given, the exact number is not on record here.

For data set [1], the system named is T. cruzi epimastigotes bearing mutations in cytochrome b. Description: epimastigote drug sensitivity assay, cytochrome b mutant / resistant lines. In kind it is cell-based, Trypanosoma cruzi. Conditions: for EC50: Trypanosoma cruzi; for fold change from WT, L197I: compound 3-resistant line (L197I); for fold change from WT, F222L: compound 5-resistant line (F222L). The procedure: (§1) T. cruzi epimastigotes from the Silvio strain (MHOM/BR/78/Silvio; clone X10/7A) were grown at 28°C in RTH/FBS medium ([80]).
(§2) T. cruzi epimastigote assays carried out as described previously ([43]).
Compound-resistant cell lines were generated by subculturing clones of wild-type T. cruzi epimastigotes in the continuous presence of compound 3 or compound 5. Starting at sublethal concentrations, drug concentrations in 3 independent cultures were increased in a stepwise manner, usually by 2-fold. When parasites were able to survive and grow in compound concentrations equivalent to >30-fold their established EC50 value, they were cloned by limiting dilution in the presence of compound. Three independent clones were selected from each compound for further study.

Another data set in a line: FaSSIF solubility assay. The data set is classed as physicochemical. Conditions: pH 6.5, 4 h. The procedure: Solubility of test compounds in fasted simulated intestinal fluid (FaSSIF) was determined at pH 6.5 after 4 h equilibration at rt. An amount of1 mL of FaSSIF buffer (3 mM sodium taurocholate, 0.75 mM lecithin in sodium phosphate buffer at pH 6.5) was added to manually weighed 1 mg of solid compound in a 2 mL HPLC autosampler vial. The resulting suspension was shaken at 900 rpm for 4 h at rt and then transferred to a Multiscreen HTS, 96-well solubility filter plate. The residual solid was removed by filtration. The supernatant solution was quantified by HPLC−UV using single-point calibration of a known concentration of the compound in DMSO. The dynamic range of the assay was 1−1000 μg/mL.

For data set [2], the system named is wild-type T. cruzi epimastigotes. In words: epimastigote drug sensitivity assay, wild-type. In kind it is cell-based. Conditions: Trypanosoma cruzi. On the procedure: as §1, §2
The nature of data set [3]: kinetic aqueous solubility (CLND). In kind it is physicochemical. The note with it: phosphate buffered saline, aqueous buffer, kinetic from dmso stock, pH 7.4. On the procedure:
The eluent is quantified by suitably calibrated flow injection CLND. This assay has a dynamic range between the lower detection limit of 1 and 500 μM, governed by the protocol’s 1:20 dilution into pH 7.4 phosphate buffer solution from nominal 10 mM DMSO stock.

The subject of a further data set is HepG2 cells. Description: Seahorse MST (mitochondrial stress test), oxygen consumption rate. The note with it: lowest concentration reducing OCR >15% vs DMSO. In kind it is cell-based. On the procedure:
To measure the Oxygen Consumption Rate (OCR) in cells following compound treatment, the Seahorse XFe96 Extracellular Flux Analyser (Agilent) was used ([69]). HepG2 cells were maintained in DMEM medium (Invitrogen #11966-025) supplemented with 10 mM galactose, 1 mM sodium pyruvate, 5 mM HEPES, 2 mM GlutaMAX, 10% fetal bovine serum and 50 μg/ml gentamycin. Cells were maintained in a 37 °C, 5% CO2 humidified atmosphere. The measurement of OCR was performed as previously described ([70], [71]) with minor modifications. Briefly, HepG2 cells were seeded in an XF96-well plate at 14000 cells per 100 μl cell culture medium per well and incubated in a 37 °C, 5% CO2 humidified atmosphere for 24 hours. Following incubation, the culture medium was replaced with 175 μl pre-warmed, serum-free XF base assay medium (Agilent), supplemented with 2 mM L-glutamine, 1 mM sodium pyruvate and 10 mM galactose (pH 7.4) and incubated at 37 °C for one hour. Test compounds (compound 3 and 4) were maintained in DMSO and a four-point dose response (final concentrations 10, 20, 40 and 80 μM), plus 0.4% DMSO control, were diluted to 8× concentration in XF assay medium and 25 μL was loaded into Port A of the XF Assay Cartridge. The mito-stress test components oligomycin (1 μM final), carbonyl cyanide-4-(trifluoromethoxy)-phenylhydrazon [FCCP] […]

In data set [4] the test system is isolated rat liver mitochondria. Description: calcium loading capacity (CLC) in rat liver mitochondria. The note with it: minimum effective concentration. In kind it is biochemical. The procedure:
The CLC of freshly isolated liver mitochondria was determined as previously described ([70]). Briefly, mitochondria were suspended at 0.2 mg/ml in incubation buffer B, supplemented with 100 μM arsenazo III, 2.5 μM rotenone and 1 μg/ml oligomycin in each well of a 96 well microplate (control and treated mitochondria were assayed simultaneously) and absorbance measured every 2 seconds at 650 nm in a FlexStation3 microplate reader (Molecular Devices, Sunnyvale, CA, USA). After approximately 1 minute of reading, Ca^2+ was added (0.5-1 μmol/ mg mitochondrial protein) followed by the addition of 10 mM succinate as the mitochondrial substrate. The CLC was calculated as the difference in optical density (ΔOD) between the point at which mitochondria were energized and the point where mitochondrial permeability transition was triggered (i.e., the lowest OD reading before calcium release via MPT).
The concentration-response relationship was modelled using a robust fit of a cubic polynomial regression ([74], [75]). The fitted curves were then used to calculate the Minimum Effective Concentration (MEC). The MEC was defined as the lowest concentration where the fitted curve exceeded 3 standard deviations (SD) around the DMSO mean response. SD was estimated from the deviations of DMSO and compound treated wells around the fitted means, using a robust estimator based on Gini’s mean difference ([76]).

The mark [5] stands for this setting: Table 2, wild-type epimastigotes, read-out: EC50 WT.

As for `COc1cc(F)ccc1-c1c(C)[nH]c2nc(N)nc(C)c12` [Compound 2, 5-(4-Fluoro-2-methoxyphenyl)-4,6-dimethyl-7H-pyrrolo[2,3-d]pyrimidin-2-amine], the EC50 was determined as 3620 ± 322 nM in data set [1] (read-out: EC50 F222L), 117 ± 5 nM in data set [1] (read-out: EC50 L197I) and 33 ± 2 nM in data set [2] (setting [5]). For the same compound, the “fold change from WT, L197I” value in data set [1] is reported as 4 fold. Further, the “fold change from WT, F222L” value in data set [1] is listed as 109 fold. The “FaSSIF pH 6.5” value in the data set “FaSSIF solubility assay” turned out to be 153 µg/mL. The amount in solution in data set [3] (solubility at 1 h) came to 117 µg/mL (≈ 409 µM).
Regarding `O=C(Cn1ccnc1[N+](=O)[O-])NCc1ccccc1` [Benznidazole, reference compound], in data set [3], the concentration in solution (solubility at 1 h) came to 77 µg/mL (≈ 296 µM).
For the compound `COc1ccc(-c2c(C)[nH]c3nc(N)nc(C)c23)c(OC)c1` [Compound 4, 5-(2,4-Dimethoxyphenyl)-4,6-dimethyl-7H-pyrrolo[2,3-d]pyrimidin-2-amine], the EC50 in data set [1] (read-out: EC50 F222L) is 6380 ± 436 nM; in data set [1] (read-out: EC50 L197I), 432 ± 15 nM; in data set [2] (setting [5]), 88 ± 3 nM. Further, in data set [1], the “fold change from WT, L197I” value was 5 fold. For the same compound, the “fold change from WT, F222L” value in data set [1] is given as 73 fold. Also, in the data set with HepG2 cells, the “Seahorse MST, HepG2, LEC” value was over 80 µM. For the same compound, the “FaSSIF pH 6.5” value in “FaSSIF solubility assay” is 107 µg/mL. In data set [4], the “Calcium loading capacity, rat mitochondria, MEC” value is over 200 µM. Also, the concentration in solution in data set [3] (solubility at 1 h) was 137 µg/mL (≈ 459 µM).
For `COc1cc(Cl)ccc1-c1c(C)[nH]c2nc(N)nc(C)c12` [Compound 3, 5-(4-Chloro-2-methoxyphenyl)-4,6-dimethyl-7H-pyrrolo[2,3-d]pyrimidin-2-amine], the EC50 in data set [1] (read-out: EC50 F222L) turned out to be 1120 ± 63 nM; in data set [1] (read-out: EC50 G36C/L197F cytb line), 3 ± 0.1 nM; in data set [1] (read-out: EC50 G36C/L197I cytb line), 258 ± 7 nM; in data set [1] (read-out: EC50 L197F cytb line) it was 3.7 ± 0.1 nM; in data set [1] (read-out: EC50 L197I), 115 ± 7 nM; in data set [1] (read-out: EC50 compound 3-resistant clone RES1) it was 107 ± 5.4 nM. Further, the EC50 was found to be 166 ± 14 nM in data set [1] (read-out: EC50 compound 3-resistant clone RES3), 4.6 ± 0.2 nM in data set [2] (read-out: EC50 wild-type), 11.3 ± 0.5 nM in data set [2] (read-out: EC50 wild-type epimastigotes) and 6 ± 0.2 nM in data set [2] (setting [5]). Also, the “fold change from WT, L197I” value in data set [1] was found to be 19 fold. Further, the “fold change from WT, F222L” value in data set [1] amounted to 183 fold. The “cross-resistance of G36C and L197I epimastigotes” value in data set [1] (versus wild-type) amounted to 23 fold. In the data set on HepG2 cells, the “Seahorse MST, HepG2, LEC” value was determined as 80 µM. For the same compound, the “FaSSIF pH 6.5” value in the data set “FaSSIF solubility assay” is listed as 76 µg/mL. For the same compound, the “Calcium loading capacity, rat mitochondria, MEC” value in data set [4] is 5.7 µM. In addition, the solubility (as a rule, how much of the substance goes into solution per volume) at 1 h in data set [3] is 103 µg/mL (≈ 340 µM).
